According to patent US9521847B2, “Synergistic weed control from applications of pyridine carboxylic acid herbicides and synthetic auxin herbicides and/or auxin transport inhibitors” (Dow AgroSciences LLC, priority 2014, dated 2016):
Where two headings read alike, the source gives them in different places.

Columns and labels:
[1] = system: common chickweed (Stellaria media, STEME); assay: Greenhouse postemergence trial, % visual injury; format: in vivo; settings: for % visual injury, Obs: STEME
[2] = system: poinsettia (Euphorbia heterophylla, EPHHL); assay: Greenhouse postemergence trial, % visual injury
[3] = system: spring barley (HORVS); assay: Greenhouse postemergence trial, crop phytotoxicity (% visual injury); settings: crop, 20-22 d
[4] = system: kochia (KCHSC, Kochia scoparia); assay: Greenhouse postemergence trial, % visual injury; format: in vivo
Procedure: Following the protocol in Example 1, compound 1 and compound 2 were combined with 2,4 D EHE (EC) and applied to kochia (KCHSC, Kochia scoparia) and the phytotoxicity of the herbicidal compositions was measured.
Following the protocol in Example 1, compound 1 (EC) and Compound 2 (SC) were combined with diflufenzopyr and applied to kochia (Kochia scoparia, KCHSC) and the phytotoxicity of the herbicidal composition was measured.

[5] = system: pigweed (AMARE, Amaranthus retroflexus); assay: Greenhouse postemergence trial, % visual injury; format: in vivo
[6] = system: winter rape (BRSNW, Brassica napus); assay: Greenhouse postemergence trial, % visual injury; format: in vivo; settings: 20-22 d
[7] = system: velvetleaf (Abutilon theophrasti, ABUTH); assay: Greenhouse postemergence trial, % visual injury; format: in vivo
[8] = system: grain sorghum (Sorghum vulgare, SORVU); assay: Greenhouse postemergence trial, % visual injury; format: in vivo
[9] = system: winter wheat (TRZAW); assay: Greenhouse postemergence trial, crop phytotoxicity (% visual injury); settings: for % visual injury, Obs: TRZAW; for % visual injury Obs: crop, 20-22 d
[10] = system: ivyleaf morningglory (Ipomoea hederacea, IPOHE); assay: Greenhouse postemergence trial, % visual injury
[11] = system: maize (ZEAMX); assay: Greenhouse postemergence trial, crop phytotoxicity (% visual injury); settings: for % visual injury, Obs: ZEAMX
[12] = system: common rice (ORYSA); assay: as above; settings: for % visual injury, Obs: ORYSA
[13] = system: Canadian thistle (CIRAR, Cirsium arvense); assay: Greenhouse postemergence trial, % visual injury; settings: for % visual injury, Obs: CIRAR;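 for all read-outs here: plants sprayed at second to third true leaf stage, injury scored visually 20-22 d later against solvent-blank sprayed controls, 0 meaning no injury and 100 complete kill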
[14] = system: spring rape (Brassica napus, BRSNN); assay: Greenhouse postemergence trial, % visual injury
[15] = system: turnip (Brassica rapa, BRSRR); assay: Greenhouse postemergence trial, % visual injury; format: in vivo
[16] = system: wild radish (Raphanus raphanistrum, RAPRA); assay: Greenhouse postemergence trial, % visual injury; format: in vivo
[17] = system: wild pansy (Viola tricolor, VIOTR); assay: Greenhouse postemergence trial, % visual injury
[18] = system: Indian hedge mustard (Sisymbrium orientale, SSYOR); assay: Greenhouse postemergence trial, % visual injury; format: in vivo
[19] = system: wild mustard (Sinapis arvensis, SINAR); assay: Greenhouse postemergence trial, % visual injury; format: in vivo
[20] = system: black mustard (Brassica nigra, BRSNI); assay: Greenhouse postemergence trial, % visual injury; format: in vivo
[21] = system: common lambsquarters (CHEAL, Chenopodium album L.); assay: Greenhouse postemergence trial, % visual injury; format: in vivo
[22] = system: spring barley (HORVS); settings: Hordeum vulgare (spring barley), in vivo
[23] = system: maize (ZEAMX); settings: maize (Zea mays), in vivo
[24] = system: winter wheat (TRZAW); settings: in vivo; for % visual injury Obs: Triticum aestivum (winter wheat)
[25] = system: common rice (ORYSA); settings: in vivo
[26] = system: large crabgrass (Digitaria sanguinalis, DIGSA); assay: Greenhouse postemergence trial, % visual injury; format: in vivo; settings: Digitaria sanguinalis, post-emergence, DIGSA, read-out: % visual injury, Obs
[27] = system: rutabaga (Brassica napus var. napobrassica, BRSNA); assay: Greenhouse postemergence trial, % visual injury; format: in vivo; settings: 400 g ae/ha alone; 20-22 d
[28] = system: Chinese kale (Brassica alboglabra, BRSAG); assay: Greenhouse postemergence trial, % visual injury; format: in vivo; settings: 400 g ae/ha alone; 20-22 d
[29] = system: brown mustard (Brassica juncea, BRSJU); assay: Greenhouse postemergence trial, % visual injury; format: in vivo; settings: 400 g ae/ha alone; 20-22 d
[30] = system: nutsedge (Cyperus esculentus, CYPES); assay: Greenhouse postemergence trial, % visual injury; format: in vivo
[31] = system: barnyardgrass (Echinochloa crus-galli, ECHCG); assay: Greenhouse postemergence trial, % visual injury; format: in vivo; settings: ECHCG, 280 g ae/ha
[32] = system: sunflower (Helianthus annus, HELAN); assay: Greenhouse postemergence trial, % visual injury; format: in vivo; settings: dichlorprop-P 400 g ae/ha
[33] = Brassica napus, post-emergence, read-out: % visual injury, Obs
[34] = winter wheat (Triticum aestivum)
[35] = Cirsium arvense, post-emergence, read-out: % visual injury (Obs)
[36] = Brassica napus, post-emergence, read-out: % visual injury (Obs)
[37] = Cirsium arvense, post-emergence, read-out: % visual injury Obs

SMILES: Cc1cc(Cl)ccc1OC(C)C(=O)O (stereo not shown) [Mecoprop-P, mecoprop-P]
- % visual injury, Obs ([1]; 400 g ae/ha): 0%
- pest or weed control at 400 g/ha ([2]; Euphorbia heterophylla, post-emergence, read-out: % visual injury, Obs, EPHHL, 400 g ae/ha): 30%
- % visual injury Obs ([3]; 400 g ae/ha alone): 0%
- pest or weed control at 400 g/ha ([4]; Bassia scoparia, post-emergence, KCHSC, 400 g ae/ha, read-out: % visual injury, Obs): 10%
- pest or weed control at 400 g/ha ([5]; Amaranthus retroflexus, post-emergence, 400 g ae/ha alone, 20-22 d, read-out: % visual injury Obs): 58%
- % visual injury Obs ([6]; 400 g ae/ha alone): 88%
- pest or weed control at 400 g/ha ([7]; Abutilon theophrasti, post-emergence, ABUTH, 400 g ae/ha, read-out: % visual injury, Obs): 30%
- % visual injury, Obs ([8]; SORVU, 400 g ae/ha): 0%
- % visual injury, Obs ([9]; 400 g ae/ha): 0%
- % visual injury Obs ([9]; 400 g ae/ha alone): 0%
- pest or weed control at 400 g/ha ([10]; Ipomoea, post-emergence, read-out: % visual injury, Obs, IPOHE, 400 g ae/ha): 30%
- % visual injury, Obs ([11]; 400 g ae/ha): 0%
- % visual injury, Obs ([12]; 400 g ae/ha): 0%
- % visual injury, Obs ([13]; 400 g ae/ha): 10%
- plant injury at 400 g/ha [14, 33]: 30%

SMILES: COC(=O)c1nc(-c2ccc(Cl)c(OC)c2F)cc(N)c1Cl [Arylex ™]
- % visual injury (Obs) ([15]; Arylex 2.5 g ae/ha): 10%
- % visual injury (Obs) ([15]; Arylex 5 g ae/ha): 13%
- % visual injury (Obs) ([16]; Arylex 2.5 g ae/ha): 10%
- % visual injury (Obs) ([16]; Arylex 5 g ae/ha): 20%
- % visual injury (Obs) ([17]; Arylex 2.5 g ae/ha): 15%
- % visual injury (Obs) ([17]; Arylex 5 g ae/ha): 20%
- % visual injury (Obs) ([8]; Arylex 2.5 g ae/ha): 0%
- % visual injury (Obs) ([9]; Arylex 2.5 g ae/ha): 0%
- % visual injury (Obs) ([10]; Arylex 2.5 g ae/ha): 10%
- % visual injury (Obs) ([11]; Arylex 2.5 g ae/ha): 0%
- % visual injury (Obs) ([12]; Arylex 2.5 g ae/ha): 0%
- % visual injury (Obs) ([13]; Arylex 2.5 g ae/ha): 50%
- % visual injury (Obs) ([18]; Arylex 2.5 g ae/ha): 57%
- % visual injury (Obs) ([18]; Arylex 5 g ae/ha): 63%
- % visual injury (Obs) ([14]; Arylex 2.5 g ae/ha): 20%
- % visual injury (Obs) ([19]; Arylex 2.5 g ae/ha): 65%
- % visual injury (Obs) ([19]; Arylex 5 g ae/ha): 78%
- % visual injury (Obs) ([20]; Arylex 2.5 g ae/ha): 0%
- % visual injury (Obs) ([20]; Arylex 5 g ae/ha): 0%

SMILES: COc1c(Cl)ccc(Cl)c1C(=O)O [Dicamba-DMA, dicamba-dimethylammonium, reference compound]
- pest or weed control at 140 g/ha ([2]; Euphorbia heterophylla, post-emergence, read-out: % visual injury, Obs, EPHHL, 140 g ae/ha): 20%
- % visual injury (Obs) ([2]; dicamba-DMA 150 g ae/ha): 50%
- % visual injury, Obs ([21]; CHEAL, 140 g ae/ha): 85%
- pest or weed control at 140 g/ha ([5]; Amaranthus retroflexus, post-emergence, 140 g ae/ha alone, 20-22 d, read-out: % visual injury Obs): 67%
- % visual injury Obs ([6]; 140 g ae/ha alone): 40%
- % visual injury Obs [22]: 0%
- % visual injury (Obs) ([17]; dicamba-DMA 150 g ae/ha): 20%
- % visual injury (Obs) [23]: 0%
- % visual injury, Obs [23]: 0%
- % visual injury Obs [24]: 0%
- % visual injury (Obs) [24, 34]: 0%
- % visual injury, Obs [24, 34]: 0%
- % visual injury (Obs) ([10]; dicamba-DMA 150 g ae/ha): 70%
- pest or weed control at 150 g/ha [13, 35]: 70%
- plant injury at 150 g/ha [14, 36]: 40%
- plant injury at 140 g/ha [14, 33]: 50%
- % visual injury (Obs) [25]: 0%
- % visual injury, Obs [25]: 5%
- pest or weed control at 140 g/ha ([26]; 140 g ae/ha): 0%

SMILES: O=C(O)COc1ccc(Cl)cc1Cl [2,4-D choline, reference compound]
- % visual injury Obs [27]: 93%
- % visual injury Obs [28]: 85%
- % visual injury Obs [29]: 90%

SMILES: CCCCOCCOC(=O)COc1nc(Cl)c(Cl)cc1Cl [triclopyr-butotyl, reference compound]
- % visual injury, Obs ([30]; CYPES, 280 g ae/ha): 10%
- % visual injury, Obs ([1]; 280 g ae/ha): 20%
- pest or weed control at 280 g/ha ([4]; Bassia scoparia, post-emergence, KCHSC, 280 g ae/ha, read-out: % visual injury, Obs): 50%
- % visual injury, Obs [31]: 0%
- pest or weed control at 280 g/ha ([7]; Abutilon theophrasti, post-emergence, ABUTH, 280 g ae/ha, read-out: % visual injury, Obs): 20%
- % visual injury, Obs ([17]; VIOTR, 280 g ae/ha): 65%
- % visual injury, Obs ([9]; 280 g ae/ha): 15%
- % visual injury, Obs ([11]; 280 g ae/ha): 10%
- % visual injury, Obs ([12]; 280 g ae/ha): 0%
- % visual injury, Obs ([13]; 280 g ae/ha): 85%
- plant injury at 280 g/ha [14, 33]: 80%
- pest or weed control at 280 g/ha ([26]; 280 g ae/ha): 0%

SMILES: O=C(O)c1nc(Cl)ccc1Cl [clopyralid]
- % visual injury (Obs) ([1]; clopyralid 120 g ae/ha): 0%
- pest or weed control at 100 g/ha ([2]; Euphorbia heterophylla, post-emergence, read-out: % visual injury, Obs, EPHHL, 100 g ae/ha): 5%
- pest or weed control at 100 g/ha ([21]; Chenopodium album, post-emergence, 100 g ae/ha alone, 20-22 d, read-out: % visual injury Obs): 0%
- % visual injury (Obs) ([21]; clopyralid 120 g ae/ha): 10%
- % visual injury Obs ([3]; 100 g ae/ha alone): 5%
- % visual injury (Obs) ([4]; clopyralid 120 g ae/ha): 10%
- % visual injury, Obs ([5]; AMARE, 100 g ae/ha): 28%
- pest or weed control at 100 g/ha ([5]; Amaranthus retroflexus, post-emergence, 100 g ae/ha alone, 20-22 d, read-out: % visual injury Obs): 3%
- % visual injury Obs ([6]; 100 g ae/ha alone): 0%
- % visual injury, Obs ([9]; 100 g ae/ha): 0%
- % visual injury (Obs) ([9]; clopyralid 120 g ae/ha): 0%
- % visual injury Obs ([9]; 100 g ae/ha alone): 3%
- pest or weed control at 100 g/ha ([10]; Ipomoea, post-emergence, read-out: % visual injury, Obs, IPOHE, 100 g ae/ha): 35%
- % visual injury (Obs) ([10]; clopyralid 120 g ae/ha): 30%
- % visual injury, Obs ([11]; 100 g ae/ha): 0%
- % visual injury (Obs) ([11]; clopyralid 120 g ae/ha): 0%
- % visual injury, Obs ([12]; 100 g ae/ha): 0%
- % visual injury (Obs) ([12]; clopyralid 120 g ae/ha): 0%
- pest or weed control at 100 g/ha [13, 37]: 85%
- plant injury at 100 g/ha [14, 33]: 43%
- pest or weed control at 100 g/ha ([26]; 100 g ae/ha): 0%

SMILES: CC(Oc1ccc(Cl)cc1Cl)C(=O)O (stereo not shown) [Dichlorprop-P, dichlorprop-P, reference compound]
- % visual injury (Obs) ([30]; dichlorprop-P 400 g ae/ha): 0%
- % visual injury (Obs) ([1]; dichlorprop-P 400 g ae/ha): 20%
- % visual injury (Obs) ([2]; dichlorprop-P 400 g ae/ha): 60%
- pest or weed control at 280 g/ha ([5]; Amaranthus retroflexus, post-emergence, 280 g ae/ha alone, 20-22 d, read-out: % visual injury Obs): 40%
- % visual injury Obs ([6]; 280 g ae/ha alone): 83%
- % visual injury Obs [22]: 0%
- % visual injury (Obs) ([7]; dichlorprop-P 400 g ae/ha): 60%
- % visual injury (Obs) [32]: 85%
- % visual injury Obs [24]: 0%
- % visual injury (Obs) [24, 34]: 0%
- pest or weed control at 400 g/ha [13, 35]: 70%
- pest or weed control at 280 g/ha [13, 37]: 75%
- plant injury at 400 g/ha [14, 36]: 80%
- % visual injury (Obs) [25]: 0%
